Patent publication US20200069775A1, “BRAIN OSTEOCALCIN RECEPTOR AND COGNITIVE DISORDERS” (The Trustees of Columbia University in the City of New York, priority 2017, published 2020)
Where no end group is shown, it is not given here.

Experiments:
[1] = test system: neurons in WT brain sections (ventral tegmental area, substantia nigrae, raphe nuclei); assay: Binding of biotinylated osteocalcin to brain sections (anti-biotin immunofluorescence); design: species or system mouse
Experimental: Brains from 8-week-old mice were snap-frozen in isopentane, and […] thick sections were prepared and desiccated overnight at 4° C. under vacuum. On the following day, sections were rehydrated in ice-cold binding buffer (50 mM TrisHCl [pH 7.4], 10 mM MgCl2, 0.1 mM EDTA and 0.1% BSA) for 15 min and incubated for 1 hr in the presence of biotinylated osteocalcin (3, 30, 300, 3000 ng/ml) or biotynylated recombinant GST as a control (10 μg/ml). After washing in harvesting buffer (50 mM Tris-HCl, pH 7.4), samples were fixed in 4% paraformaldehyde for 15 min, washed in PBS and incubated with goat anti-biotin antibody (1:1000, Vector laboratories) over night at 4° C. Signal was visualized by incubating with anti-goat IgG Cy-3 using Leica DM 5000B microscope (Leica). The binding assays were perform on adjacent sections for each conditions tested. […] This was tested by incubating sections of adult or embryonic (E18.5) WT brains with biotinylated undercarboxylated osteocalcin or GST-biotin alone (30 μg/ml), followed by immunofluorescence analysis using an anti-biotin antibody.

[2] = target: T1, complex containing Gpr158 and the G[…]q subunit (Mus musculus, UniProt Q8C419); assay: Pull-down assay with biotinylated osteocalcin on solubilized hippocampal membranes; type: binding; details: solubilized membranes from hippocampal tissue
T1 construct: Pull-down assay using biotinylated-osteocalcin on solubilized Ocn−/− hippocampal membrane; from tissue; host or cells: hippocampi of Ocn-/- mice, membranes solubilized with n-octyl beta-D-thioglucopyranoside
T1 sequence (Q8C419 25-1200): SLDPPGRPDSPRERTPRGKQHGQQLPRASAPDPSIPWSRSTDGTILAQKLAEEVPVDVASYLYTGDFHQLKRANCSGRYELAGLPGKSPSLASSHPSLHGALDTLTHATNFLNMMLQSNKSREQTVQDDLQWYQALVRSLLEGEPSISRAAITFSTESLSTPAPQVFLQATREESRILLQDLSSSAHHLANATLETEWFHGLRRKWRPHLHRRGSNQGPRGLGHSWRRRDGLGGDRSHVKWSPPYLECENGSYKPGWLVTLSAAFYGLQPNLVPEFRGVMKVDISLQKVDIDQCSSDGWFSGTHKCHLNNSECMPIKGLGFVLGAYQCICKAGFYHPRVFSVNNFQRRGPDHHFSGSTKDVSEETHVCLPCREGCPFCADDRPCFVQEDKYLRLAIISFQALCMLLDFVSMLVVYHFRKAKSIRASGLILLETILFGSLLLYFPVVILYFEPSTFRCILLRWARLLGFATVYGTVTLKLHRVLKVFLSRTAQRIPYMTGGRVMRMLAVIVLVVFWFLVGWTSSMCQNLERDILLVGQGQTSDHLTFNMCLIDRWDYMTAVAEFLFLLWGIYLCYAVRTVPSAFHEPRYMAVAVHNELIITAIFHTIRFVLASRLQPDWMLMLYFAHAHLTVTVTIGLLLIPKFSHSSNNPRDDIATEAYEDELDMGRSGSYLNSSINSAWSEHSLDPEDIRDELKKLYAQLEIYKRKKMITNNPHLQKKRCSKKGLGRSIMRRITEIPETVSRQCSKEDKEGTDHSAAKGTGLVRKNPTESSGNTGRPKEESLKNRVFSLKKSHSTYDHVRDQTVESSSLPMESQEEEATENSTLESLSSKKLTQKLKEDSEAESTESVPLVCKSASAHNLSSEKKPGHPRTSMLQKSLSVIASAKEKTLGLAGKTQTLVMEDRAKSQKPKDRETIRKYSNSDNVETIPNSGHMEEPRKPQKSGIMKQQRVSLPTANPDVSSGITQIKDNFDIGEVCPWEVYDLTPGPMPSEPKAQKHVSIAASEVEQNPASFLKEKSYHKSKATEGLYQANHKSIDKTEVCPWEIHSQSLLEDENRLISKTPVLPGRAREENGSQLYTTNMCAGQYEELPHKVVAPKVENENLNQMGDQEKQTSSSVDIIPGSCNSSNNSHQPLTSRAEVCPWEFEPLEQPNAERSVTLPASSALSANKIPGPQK
T1 sequence (P21279 1-359 partner): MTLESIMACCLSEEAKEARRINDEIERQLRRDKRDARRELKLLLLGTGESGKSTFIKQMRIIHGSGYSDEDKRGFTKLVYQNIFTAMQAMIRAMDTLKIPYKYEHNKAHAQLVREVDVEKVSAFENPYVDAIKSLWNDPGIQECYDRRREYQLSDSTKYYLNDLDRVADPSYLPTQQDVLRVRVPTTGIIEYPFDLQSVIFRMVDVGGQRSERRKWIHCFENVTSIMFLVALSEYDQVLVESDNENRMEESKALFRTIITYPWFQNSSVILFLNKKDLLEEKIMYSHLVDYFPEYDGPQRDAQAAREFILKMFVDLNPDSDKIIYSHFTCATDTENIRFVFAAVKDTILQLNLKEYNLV
Experimental: For Western blotting, frozen hippocampi from adult mice were lysed and homogenized in 250 µl tissue lysis buffer (25 mM Tris HCl 7.5; 100 mM NaF; 10 mM Na4P2O7; 10 mmM EDTA; 1% NP 40). Proteins were transferred to nitrocellulose membranes, and blocked with TBST-5% BSA for 1 hour. Antibodies: anti-Runx2 M-70 sc-10758, Santa Cruz, anti-BDNF: sc-546, Santa Cruz; anti-tubulin: T6199, Sigma; anti-Gpr158 ABIN1535721, Assay Biotechnology; anti-Na,K ATPase 3010S Cell Signaling , were diluted (1:1000) in TBST-5% BSA and incubated overnight at 4° C. HRP-coupled secondary antibodies and ECL were used to visualize the signal. Western blot bands were quantified using ImageJ software. cAMP accumulation was measured in primary hippocampal neurons by using cAMP Parameter Assay Kit (R&D systems) and performed in primary hippocampal neurons (DIV15) following manufacturer instructions. For IP1 accumulation was determined in primary hippocampal neurons (DIV15) by using IP-One ELISA assay kit (Cisbio) following manufacturer instructions. […]
Streptavidin were added for 30 minutes at room temperature followed by PBS washes. […] For hormonal measurement; circulating levels of the carboxylated, undercarboxylated or uncarboxylated forms of osteocalcin were measured by ELISA. CTX content in serum (ng/ml) were measured with specific ELISAs (RatLaps™ (CTX-I) EIA (Immunodiagnosticsystems).

binding in the brainstem ([1]; WT brain sections): bound to neurons of the raphe nuclei
Substance: biotinylated osteocalcin: biotin-labelled undercarboxylated osteocalcin used for binding and pull-down assays (YLGASVPSPDPLEPTREQCELNPACDELSDQYGLKTAYKRIYGITI; ends and bridges not checked; also: biotin label, attachment site not given here)
binding in the midbrain ([1]; WT brain sections): bound to the ventral tegmental area and the substantia nigrae
binding to neuronal populations in brain sections ([1]; adult or embryonic (E18.5) WT brain sections): bound to several neuronal populations in the forebrain, midbrain, and brainstem
specificity of binding in midbrain and brainstem (competition) ([1]; excess of unlabeled osteocalcin or of GST): specific since it was chased away by an excess of unlabeled osteocalcin but not by an excess of GST
binding in pull-down assay [2]: could bind a complex containing Gpr158 and the G[…]q subunit
